{
  "source": "paper PMC4965473",
  "about": "(Frontiers in Physiology, 2016)",
  "key": {"[1]": {"test_system": "M2 transmembrane domain (M2TMD)", "conditions": "cited from earlier work"}, "wt M2TMD21−49": {"test_system": "wt M2TMD21−49", "set-up": "species or system influenza A"}},
  "note": "Structures can show the parent of a compound that is named as a salt.",
  "data": [
    {"smiles": "NC12CC3CC(CC(C3)C1)C2", "note": "[amantadine, amantadine hydrochloride]", "values": [
      {"measurement": "binding affinity of amantadine versus pH", "setting": "[1]", "value": "Increased binding affinity of amantadine at neutral or basic pH, compared to acidic pH"},
      {"measurement": "effect of amantadine on M2TMD tetramer", "setting": "[1]", "value": "stabilizing effect of amantadine on M2TMD tetramer"},
      {"measurement": "effect of longer incubation with amantadine on DEER data", "setting": "wt M2TMD21−49", "value": "did not produce any additional effect on the DEER data"},
      {"measurement": "effect of amantadine on DEER distances", "setting": "wt M2TMD21−49; pH 5.5", "value": "do not change upon the addition of 2 mM amantadine"},
      {"measurement": "effect of amantadine on DEER signal / modulation depth", "setting": "wt M2TMD21−49; pH 5.5", "value": "almost negligible"}
    ]}
  ]
}
